Each structure is given as a SMILES string. “And” between values parts separate entries of the source, which are not always exact repeats. Equal entries are not always repeated.

Data set [1] concerns the target T1, UDP-glucuronosyltransferase 2B7 (Homo sapiens, UniProt P16662).
T1 sequence (P16662 whole entry): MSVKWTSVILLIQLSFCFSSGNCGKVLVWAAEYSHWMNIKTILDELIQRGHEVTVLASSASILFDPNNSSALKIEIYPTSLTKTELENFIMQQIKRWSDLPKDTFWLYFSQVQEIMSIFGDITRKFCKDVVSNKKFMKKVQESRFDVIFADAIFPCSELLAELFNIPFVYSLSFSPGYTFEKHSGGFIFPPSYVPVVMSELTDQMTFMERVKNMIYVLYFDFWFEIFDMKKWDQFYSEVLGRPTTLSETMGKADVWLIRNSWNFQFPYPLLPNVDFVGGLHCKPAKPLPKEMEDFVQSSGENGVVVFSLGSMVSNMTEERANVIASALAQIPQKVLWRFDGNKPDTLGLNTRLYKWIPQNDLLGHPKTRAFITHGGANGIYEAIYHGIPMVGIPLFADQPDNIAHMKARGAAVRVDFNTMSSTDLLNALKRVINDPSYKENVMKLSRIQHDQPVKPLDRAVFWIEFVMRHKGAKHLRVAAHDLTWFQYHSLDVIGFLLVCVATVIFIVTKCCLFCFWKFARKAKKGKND
In words: Specific activity of expressed human recombinant UGT2B7Y. Format: ADME. The settings on record: recombinant enzyme.

Data set [2] concerns the target T1, UDP-glucuronosyltransferase 2B7. Put plainly: Specific activity of expressed human recombinant UGT2B7H. Format: ADME. The conditions noted are these: recombinant enzyme.

With `C[C@]12CC[C@H]3[C@@H](CCC4=CC(=O)CC[C@@]43C)[C@@H]1CC[C@@H]2O` (stereo in doubt; form 2) [TESTOSTERONE], the Activity in data set [1] and in data set [2] was 0 pm/min/mg in each case.

Take `CO[C@]12CC[C@@]3(C[C@@H]1[C@](C)(O)C(C)(C)C)[C@H]1Cc4ccc(O)c5c4[C@@]3(CCN1CC1CC1)[C@H]2O5` [BUPRENORPHINE]: in data set [2], the Activity was 478 pm/min/mg and 280 pm/min/mg.

In the case of `COc1ccc2c3c1O[C@H]1[C@@H](O)C=C[C@H]4[C@@H](C2)N(C)CC[C@@]341` [CODEINE], the Activity in data set [2] is 80 pm/min/mg and 54 pm/min/mg.

In the case of `CN1CC[C@]23CCCC[C@H]2[C@H]1Cc1ccc(O)cc13` [LEVORPHANOL], in data set [1], the Activity is 33 pm/min/mg and 25 pm/min/mg.

On to `Oc1ccc2c3c1O[C@H]1c4[nH]c5ccccc5c4C[C@@]4(O)[C@@H](C2)N(CC2CC2)CC[C@]314` [NALTRINDOLE], for which the Activity in data set [1] was 453 pm/min/mg; in data set [2], 349 pm/min/mg and 456 pm/min/mg.

Take `CN1CC[C@]23c4c5ccc(O)c4O[C@H]2C(=O)CC[C@@]3(O)[C@H]1C5` [OXYMORPHONE]: the Activity in data set [1] is 2300 pm/min/mg; in data set [2], 2944 pm/min/mg and 3139 pm/min/mg.

On to `Oc1ccc2c3c1O[C@H]1[C@@H](O)CC[C@@]4(O)[C@@H](C2)N(CC2CCC2)CC[C@]314` [NALBUPHINE], for which the Activity in data set [1] is 1100 pm/min/mg; in data set [2], 758 pm/min/mg and 862 pm/min/mg.

Consider `CN1CC[C@]23c4c5ccc(O)c4O[C@H]2C(=O)CC[C@H]3[C@H]1C5` (stereo in doubt; form 2) [HYDROMORPHONE], for which the Activity in data set [1] is 1550 pm/min/mg.

Regarding `CC1(C)[C@H]2CC[C@]1(C)[C@H](O)C2` [(-)-BORNEOL], the Activity in data set [1] was 357 pm/min/mg and 174 pm/min/mg; in data set [2], 388 pm/min/mg and 227 pm/min/mg.

For `C=CCN1CC[C@]23c4c5ccc(O)c4O[C@H]2C(=O)CC[C@@]3(O)[C@H]1C5` [NALOXONE], in data set [2], the Activity is 2908 pm/min/mg and 3462 pm/min/mg.

On to `COc1ccc2c3c1O[C@H]1[C@@H](O)C=C[C@H]4[C@@H](C2)NCC[C@@]341` [NORCODEINE], for which the Activity in data set [1] is 29 pm/min/mg and 24 pm/min/mg.

As for `Oc1ccc2c3c1O[C@H]1[C@@H](O)C=C[C@H]4[C@@H](C2)NCC[C@@]341` [NORMORPHINE], the Activity in data set [1] worked out at 80 pm/min/mg.

For the compound `C=C1CC[C@@]2(O)[C@H]3Cc4ccc(O)c5c4[C@@]2(CCN3CC2CC2)[C@H]1O5`, the Activity in data set [1] is 625 pm/min/mg; in data set [2] it was 380 pm/min/mg and 412 pm/min/mg.

As to `C[C@]12CC[C@@H](O)C[C@@H]1CC[C@@H]1[C@@H]2CC[C@]2(C)C(=O)CC[C@@H]12` (stereo in doubt; form 1) [ANDROSTERONE], the Activity in data set [1] was 94 pm/min/mg; in data set [2], 114 pm/min/mg.

Turning to `CN1CC[C@]23c4c5ccc(O)c4O[C@H]2C(=O)CC[C@H]3[C@H]1C5` (stereo in doubt; form 1) [HYDROMORPHONE], the Activity in data set [1] is 530 pm/min/mg; in data set [2], 617 pm/min/mg and 856 pm/min/mg.

Take `CN1CC[C@]23c4c5ccc(O)c4O[C@H]2[C@@H](O)C=C[C@H]3[C@H]1C5` (stereo in doubt; (-)) [MORPHINE]: the Activity in data set [1] was 3719 pm/min/mg; in data set [2] it was 2536 pm/min/mg and 2968 pm/min/mg.

With `O=C1CC[C@@]2(O)[C@H]3Cc4ccc(O)c5c4[C@@]2(CCN3CC2CC2)[C@H]1O5` [NALTREXONE], the Activity in data set [2] is 670 pm/min/mg and 662 pm/min/mg.

As for `Oc1ccc2c3c1O[C@H]1c4oc5ccccc5c4C[C@@]4(O)[C@@H](C2)N(CC2CC2)CC[C@]314` [NALTRIBEN], the Activity in data set [1] is 150 pm/min/mg and 97 pm/min/mg; in data set [2], 0 pm/min/mg.

For `CN1CC[C@]23c4c5ccc(O)c4O[C@H]2[C@@H](O)C=C[C@H]3[C@H]1C5` (stereo in doubt; (+)) [MORPHINE], in data set [1], the Activity was 160 pm/min/mg.

Regarding `C[C@]12CC[C@H]3[C@@H](CCC4=CC(=O)CC[C@@]43C)[C@@H]1CC[C@H]2O` [EPITESTOSTERONE], the Activity was 468 pm/min/mg and 240 pm/min/mg in data set [1]; 360 pm/min/mg in data set [2].

Take `CC1CC[C@H](C(C)C)[C@@H](O)C1` (stereo partly drawn) [(+)-MENTHOL]: the Activity in data set [1] was 247 pm/min/mg and 147 pm/min/mg; in data set [2] it was 255 pm/min/mg and 191 pm/min/mg.

Consider `C=CCN1CC[C@]23c4c5ccc(O)c4O[C@H]2[C@@H](O)C=C[C@H]3[C@H]1C5` [NALORPHINE], for which the Activity in data set [2] is 1483 pm/min/mg and 1051 pm/min/mg.
